Source: patent US8415373B2, “Isoquinolinone derivatives as NK3 antagonists” (H. Lundbeck A/S, priority 2008, dated 2013)

How the values were obtained:
[1] = biological target: T1, human NK3 receptor (Homo sapiens, UniProt P29371); test: NK3 receptor binding assay (SPA-based competition binding, 125I-NKB); conditions: read-out: Affinity (Ki/nM)
T1 construct: expressed in transfected cells
T1 sequence (P29371 1-465): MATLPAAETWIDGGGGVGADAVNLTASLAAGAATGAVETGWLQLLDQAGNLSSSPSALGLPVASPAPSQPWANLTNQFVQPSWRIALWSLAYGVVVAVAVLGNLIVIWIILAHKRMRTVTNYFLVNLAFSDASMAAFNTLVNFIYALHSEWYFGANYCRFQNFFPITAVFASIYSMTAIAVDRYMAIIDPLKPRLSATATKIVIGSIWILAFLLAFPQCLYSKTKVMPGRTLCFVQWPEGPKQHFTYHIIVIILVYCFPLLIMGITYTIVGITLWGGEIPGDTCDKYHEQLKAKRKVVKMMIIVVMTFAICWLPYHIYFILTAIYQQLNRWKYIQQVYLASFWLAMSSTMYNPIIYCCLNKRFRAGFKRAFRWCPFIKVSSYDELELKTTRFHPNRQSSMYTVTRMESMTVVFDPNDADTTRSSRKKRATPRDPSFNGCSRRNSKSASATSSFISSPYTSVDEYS
Experimental: Membranepreparation: BHK cells stably expressing the human NK3 receptor were seeded in harvesting plates in Dulbeccos MEM containing GlutaMax (862 mg/l), 1 mM sodium pyruvate, 10% fetal calf serum, 1% Pen/Strep, 1 mg/ml G418 and were grown at 34° C. in a humidified atmosphere containing 10% CO2. To increase receptor expression, 10 μM trichotatin A was added to the media 24 hours before harvest of the cells at a confluency of app 90%. Prior to the harvesting, the cells were washed twice with PBS without Mg^2+ og Ca^2+ and subsequently scrapped of in 10 ml PBS pr harvesting plate. The cell suspension were centrifuged at 1500×G in three minutes before resuspension in 15 mM Tris-HCl pH 7.5 buffer containing 2 mM MgCl2; 0.3 mM EDTA and 1 mM EGTA (buffer A). The cell suspension was homogenised and subsequently centrifuged at 40000×G in 30 minutes. The membrane-pellet was resuspended in buffer A containing 250 mM sucrose, aliquoted and stored at −80° C.
Affinity assay description: The assay was performed as a SPA-based competition-binding assay in a 50 mM Tris pH 7.4 assay buffer containing 120 mM NaCl, 3 mM MnCl2, 40 μg/ml bacitracin, 2 μg/ml Chymostatin, 1 μg/ml Phosphoramidon and 4 μg/ml Leupeptin. […] The assay plate was subsequently under agitation incubated for 90 min at RT. The plate was centrifugated 10 minutes at 500×G and counted in a topcounter 5 minutes pr well.

[2] = Nature reviews, 4, 967-975, 2005; cited from earlier work
[3] = tested on: schizophrenics; conditions: cited from earlier work
[4] = Nature reviews, 4, 967-975, 2005; cited from earlier work; remark: listed apart in the source

Row | SMILES | Ki [1] [nM] | other results
1 | CCn1ccnc1Cn1c(C)c(C(=O)N[C@H](c2cccc(F)c2)C2CCC2)c2cccc(F)c2c1=O [Example 2ah, 2-(1-Ethyl-1H-imidazol-2-ylmethyl)-8-fluoro-3-methyl-1-oxo-1,2-dihydro-isoquinoline-4-carboxylic acid [(S)-cyclobutyl-(3-fluoro-phenyl)-methyl]-amide] | 43 | –
2 | Cc1c(C(=O)N[C@H](c2cccc(F)c2)C2CC2)c2cccc(F)c2c(=O)n1Cc1cccnc1 [Example 2b, 8-Fluoro-3-methyl-1-oxo-2-pyridin-3-ylmethyl-1,2-dihydro-isoquinoline-4-carboxylic acid [(S)-cyclopropyl-(3-fluoro-phenyl)-methyl]-amide] | 350 | –
3 | Cc1c(C(=O)N[C@H](c2cccc(F)c2)C2CC2)c2cccc(F)c2c(=O)n1Cc1ccsc1 [Example 2g, 8-Fluoro-3-methyl-1-oxo-2-thiophen-3-ylmethyl-1,2-dihydro-isoquinoline-4-carboxylic acid [(S)-cyclopropyl-(3-fluoro-phenyl)-methyl]-amide] | 7.8 | –
4 | Cc1cc(Cn2c(C)c(C(=O)N[C@H](c3cccc(F)c3)C3CCC3)c3cccc(F)c3c2=O)no1 [Example 2m, 8-Fluoro-3-methyl-2-(5-methyl-isoxazol-3-ylmethyl)-1-oxo-1,2-dihydro-isoquinoline-4-carboxylic acid [(S)-cyclobutyl-(3-fluoro-phenyl)-methyl]-amide] | 33 | –
5 | Cc1nnc(Cn2c(C)c(C(=O)N[C@H](c3cccc(F)c3)C3CCC3)c3cccc(F)c3c2=O)[nH]1 [Example 2o, 8-Fluoro-3-methyl-2-(5-methyl-4H-[1,2,4]triazol-3-ylmethyl)-1-oxo-1,2-dihydro-isoquinoline-4-carboxylic acid [(S)-cyclobutyl-(3-fluoro-phenyl)-methyl]-amide] | 120 | –
6 | Cc1cc(Cn2c(C)c(C(=O)N[C@H](c3cccc(F)c3)C3CCC3)c3cccc(F)c3c2=O)[nH]n1 [Example 2p, 8-Fluoro-3-methyl-2-(5-methyl-2H-pyrazol-3-ylmethyl)-1-oxo-1,2-dihydro-isoquinoline-4-carboxylic acid [(S)-cyclobutyl-(3-fluoro-phenyl)-methyl]-amide] | 28 | –
7 | Cc1c(C(=O)N[C@H](c2cccc(F)c2)C2CCC2)c2cccc(F)c2c(=O)n1Cc1cocn1 [Example 2t, 8-Fluoro-3-methyl-2-oxazol-4-ylmethyl-1-oxo-1,2-dihydro-isoquinoline-4-carboxylic acid [(S)-cyclobutyl-(3-fluoro-phenyl)-methyl]-amide] | 12 | –
8 | Cc1nonc1Cn1c(C)c(C(=O)N[C@H](c2cccc(F)c2)C2CCC2)c2cccc(F)c2c1=O [Example 2v, 8-Fluoro-3-methyl-2-(4-methyl-furazan-3-ylmethyl)-1-oxo-1,2-dihydro-isoquinoline-4-carboxylic acid [(S)-cyclobutyl-(3-fluoro-phenyl)-methyl]-amide] | 6.6 | –
9 | CC(=O)N(C)C1(c2ccccc2)CCN(CCC[C@]2(c3ccc(Cl)c(Cl)c3)CCCN(C(=O)c3ccccc3)C2)CC1 [Osanetant, osanetant] | – | bioavailability [2]: poor; blood-brain barrier penetration [2]: poor; clearance [2]: relatively high; effect versus placebo in clinical trials, in particular on positive symptoms of psychosis ([3]; Am. J. Psychiatry, 161, 2004, 975-984): superior to placebo; solubility [4]: poor
10 | CC[C@H](NC(=O)c1c(O)c(-c2ccccc2)nc2ccccc12)c1ccccc1 [talnetant] | – | bioavailability [2]: poor; blood-brain barrier penetration [2]: poor; clearance [2]: relatively high; effect on cognitive behaviour of schizophrenics in clinical trials ([3]; Curr. Opion. Invest. Drug, 6, 717-721, 2005): ameliorate; solubility [4]: poor

Further compounds by falling Ki [1], results first:

Row | Ki [1] [nM] | SMILES | other results
11 | 200 | CC[C@H](NC(=O)c1c(C)n(Nc2ccccc2)c(=O)c2ccccc12)c1ccccc1 [Example 1a, 3-Methyl-1-oxo-2-phenylamino-1,2-dihydro-isoquinoline-4-carboxylic acid ((S)-1-phenyl-propyl)-amide] | –
12 | 180 | Cc1c(C(=O)N[C@H](c2cccc(F)c2)C2CC2)c2cccc(F)c2c(=O)n1Cc1cc(F)ccc1F [Example 2d, 2-(2,5-Difluoro-benzyl)-8-fluoro-3-methyl-1-oxo-1,2-dihydro-isoquinoline-4-carboxylic acid [(S)-cyclopropyl-(3-fluoro-phenyl)-methyl]-amide] | –
13 | 95 | Cc1nc(Cn2c(C)c(C(=O)N[C@H](c3cccc(F)c3)C3CCC3)c3cccc(F)c3c2=O)cs1 [Example 2ac, 8-Fluoro-3-methyl-2-(2-methyl-thiazol-4-ylmethyl)-1-oxo-1,2-dihydro-isoquinoline-4-carboxylic acid [(S)-cyclobutyl-(3-fluoro-phenyl)-methyl]-amide] | –
14 | 28 | Cc1c(C(=O)N[C@H](c2cccc(F)c2)C2CC2)c2cccc(F)c2c(=O)n1Cc1ccoc1 [Example 2a, 8-Fluoro-2-furan-3-ylmethyl-3-methyl-1-oxo-1,2-dihydro-isoquinoline-4-carboxylic acid [(S)-cyclopropyl-(3-fluoro-phenyl)-methyl]-amide] | –
15 | 4 | Cc1c(C(=O)N[C@H](c2ccc(F)c(F)c2)C2CCC2)c2cccc(F)c2c(=O)n1Cc1ncco1 [Example 4b, 8-Fluoro-3-methyl-2-oxazol-2-ylmethyl-1-oxo-1,2-dihydro-isoquinoline-4-carboxylic acid [(S)-cyclobutyl-(3,4-difluoro-phenyl)-methyl]-amide] | –
